This note sets out measurements from US6617166B2, “Measurement of accelerated whole blood clotting time” (Prophylaxis Limited, priority 1999, dated 2003).

Values joined by “and” are separate entries in the source; they are usually repeats but may differ in a detail not shown here. Equal values may be shown once. Marks after values point to notes of the source that are not given here.

Assay [1] has as its system recalcified citrated whole blood. Briefly: Accelerated whole blood clotting time (AWBCT), recalcified citrated whole blood (RCCWB). Type of assay: cell-based. Here is the method:
Comparison of the results using native blood and citrated blood was made. 9 parts of citrated blood was added to 1 part calcium n chloride 133 mM, mixed and aliquotes of the recalcified citrated blood added to the wells of the coagulometer containing duplicates of saline control and dilutions of collagen. A concentration of […] calcium chloride is considered to be optimal; but concentrations in the range of, for example, 110-140 mM may be used. However, it should be noted that the length and un-reliability of coagulation times increase with concentrations further from the optimum, especially with higher values.
(§1) Whilst native blood is tested immediately after collection, for example, within two minutes, citrated blood may be stored for a longer period, before being recalcified immediately before the test is conducted. The interval between blood collection and testing may be on the order of one hour. It should be noted that shorter collection intervals give more reliable results.
(§2) The test is performed on native freshly drawn venous blood, or recalcified citrated blood or heparinised blood.
(§3) 100 μL of saline control or a range of concentration of a platelet agonists are added to the wells of a coagulometer and then 200 μL of native or RCCWB whole blood added and the coagulation time recorded. The potential agonists are; collagen, ADP, adrenalin, platelet activating factor, thrombin. It is anticipated that the agonist appropriate for specific roles will emerge in the course of clinical studies.
(§4) Numbers are the time to coagulation in seconds. The results given are the averages of duplicates, unless otherwise indicated by an asterix, (corresponding to single coagulation times where spurious results have not been averaged).

For assay [2], the system named is native whole blood. Briefly: Accelerated whole blood clotting time (AWBCT), native blood. Type of assay: cell-based. Here is the method: as §1, §2, §3, §4

Regarding `CC(=O)Oc1ccccc1C(=O)O` [Aspirin], the “time to coagulation (AWBCT)” value in assay [1] (RCCWB, aspirin 40 μg/ml, collagen 0.125 mg/ml, collection interval +135 min) amounted to 275 s; in assay [1] (RCCWB, aspirin 40 μg/ml, collagen 0.25 mg/ml, collection interval +135 min), 274 s; in assay [1] (RCCWB, aspirin 40 μg/ml, collagen 0.5 mg/ml, collection interval +135 min), 216 s; in assay [1] (RCCWB, aspirin 40 μg/ml, collagen 1.0 mg/ml, collection interval +135 min), 184 s; in assay [1] (RCCWB, aspirin 40 μg/ml, saline, collection interval +135 min), 500 s; in assay [1] (RCCWB, aspirin 80 μg/ml, collagen 0.125 mg/ml, collection interval +106 min), 224 s. Also, the “time to coagulation (AWBCT)” value in assay [1] (RCCWB, aspirin 80 μg/ml, collagen 0.25 mg/ml, collection interval +106 min) was 236 s; in assay [1] (RCCWB, aspirin 80 μg/ml, collagen 0.5 mg/ml, collection interval +106 min), 218* seconds; in assay [1] (RCCWB, aspirin 80 μg/ml, collagen 1.0 mg/ml, collection interval +106 min), 212 s; in assay [1] (RCCWB, aspirin 80 μg/ml, saline, collection interval +106 min), 468 s.

As for `Nc1ncnc2c1ncn2[C@@H]1O[C@H](COP(=O)(O)OP(=O)(O)O)[C@@H](O)[C@H]1O` [ADP, adenosine diphosphate], the “time to coagulation (AWBCT)” value in assay [2] (ADP 6.25 μM) stood at 265 s; in assay [2] (ADP 12.5 μM), 269 s; in assay [2] (ADP 25 μM) it was 272 s; in assay [2] (ADP 50 μM) it was 255 s; in assay [1] (recalcified whole blood, ADP 12.5 μM, collection interval +65 mins), 329 s; in assay [1] (recalcified whole blood, ADP 25 μM, collection interval +65 mins), 358 s. In addition, the “time to coagulation (AWBCT)” value stood at 348 s in assay [1] (recalcified whole blood, ADP 50 μM, collection interval +65 mins) and 341 s in assay [1] (recalcified whole blood, ADP 100 μM, collection interval +65 mins).

In the case of Heparin, the “time to coagulation (AWBCT)” value in assay [1] (RCCWB + Heparin 1.25 u/ml, collagen 0.125 mg/ml) was 325* seconds; in assay [1] (RCCWB + Heparin 1.25 u/ml, collagen 0.25 mg/ml), 302 s; in assay [1] (RCCWB + Heparin 1.25 u/ml, collagen 0.5 mg/ml), 71 s; in assay [1] (RCCWB + Heparin 1.25 u/ml, collagen 1.0 mg/ml) it was 54 s; in assay [1] (RCCWB + Heparin 1.25 u/ml, saline), 500+ seconds; in assay [1] (RCCWB + Heparin 2.5 u/ml, collagen 0.125 mg/ml), 340 s. For the same compound, the “time to coagulation (AWBCT)” value is 405 s in assay [1] (RCCWB + Heparin 2.5 u/ml, collagen 0.25 mg/ml); 61 s in assay [1] (RCCWB + Heparin 2.5 u/ml, collagen 0.5 mg/ml); 41 s in assay [1] (RCCWB + Heparin 2.5 u/ml, collagen 1.0 mg/ml); 600+ seconds in assay [1] (RCCWB + Heparin 2.5 u/ml, saline); 600+ seconds in assay [1] (RCCWB, Heparin 5.0 u/ml, collagen 0.125 mg/ml); 600+ seconds in assay [1] (RCCWB, Heparin 5.0 u/ml, collagen 0.25 mg/ml). In addition, the “time to coagulation (AWBCT)” value in assay [1] (RCCWB, Heparin 5.0 u/ml, collagen 0.5 mg/ml) was 48 s; in assay [1] (RCCWB, Heparin 5.0 u/ml, collagen 1.0 mg/ml), 31 s; in assay [1] (RCCWB, Heparin 5.0 u/ml, saline), 600+ seconds; in assay [1] (RCCWB, Heparin 10 u/ml, collagen 0.125 mg/ml) it was 600+ seconds; in assay [1] (RCCWB, Heparin 10 u/ml, collagen 0.25 mg/ml), 600+ seconds; in assay [1] (RCCWB, Heparin 10 u/ml, collagen 0.5 mg/ml), 34 s. Besides, the “time to coagulation (AWBCT)” value was 27 s in assay [1] (RCCWB, Heparin 10 u/ml, collagen 1.0 mg/ml) and 600+ seconds in assay [1] (RCCWB, Heparin 10 u/ml, saline).

In the case of collagen, the “time to coagulation (AWBCT)” value in assay [2] (collagen 0.125 mg/ml) was 178 s and 134 s and 140 s and 149 s; in assay [2] (collagen 0.25 mg/ml) it was 162 s and 111 s and 125 s and 137 s; in assay [2] (collagen 1.0 mg/ml), 34 seconds and 28* seconds and 24 seconds and 29 seconds; in assay [1] (RCCWB 50 mins later, collagen 0.125 mg/ml), 190 s; in assay [1] (RCCWB 50 mins later, collagen 0.25 mg/ml), 184 s; in assay [1] (RCCWB 50 mins later, collagen 0.5 mg/ml) it was 181 s. Besides, the “time to coagulation (AWBCT)” value in assay [1] (RCCWB 50 mins later, collagen 1.0 mg/ml) is 55 s; in assay [1] (RCCWB 75 mins later, collagen 0.125 mg/ml), 202 s; in assay [1] (RCCWB 75 mins later, collagen 0.25 mg/ml), 209 s; in assay [1] (RCCWB 75 mins later, collagen 0.5 mg/ml), 70 s; in assay [1] (RCCWB 75 mins later, collagen 1.0 mg/ml), 50 s; in assay [1] (RCCWB, collagen 0.125 mg/ml), 166 s and 159 s and 177 s and 178 s. The “time to coagulation (AWBCT)” value was 185 seconds and 151 seconds and 165 seconds and 161* seconds in assay [1] (RCCWB, collagen 0.25 mg/ml); 44 s and 49 s and 39 s and 56 s in assay [1] (RCCWB, collagen 1.0 mg/ml).

Low Molecular Weight Heparin [LMWH]: the “time to coagulation (AWBCT)” value in assay [2] (LMWH 0.25 u/ml, collagen 0.125 mg/ml) is 233 s; in assay [2] (LMWH 0.25 u/ml, collagen 0.25 mg/ml) it was 224 s; in assay [2] (LMWH 0.25 u/ml, collagen 0.5 mg/ml) it was 204* seconds; in assay [2] (LMWH 0.25 u/ml, collagen 1.0 mg/ml), 64 s; in assay [2] (LMWH 0.25 u/ml, saline), 500+ seconds; in assay [2] (LMWH 0.5 u/ml, collagen 0.125 mg/ml), 226 s. For the same compound, the “time to coagulation (AWBCT)” value in assay [2] (LMWH 0.5 u/ml, collagen 0.25 mg/ml) is 228 s; in assay [2] (LMWH 0.5 u/ml, collagen 0.5 mg/ml), 41 s; in assay [2] (LMWH 0.5 u/ml, collagen 1.0 mg/ml), 46 s; in assay [2] (LMWH 0.5 u/ml, saline), 500+ seconds; in assay [2] (LMWH 1.0 u/ml, collagen 0.125 mg/ml), 318 s; in assay [2] (LMWH 1.0 u/ml, collagen 0.25 mg/ml), 259 s. In addition, the “time to coagulation (AWBCT)” value is given as 48* seconds in assay [2] (LMWH 1.0 u/ml, collagen 0.5 mg/ml); 27* seconds in assay [2] (LMWH 1.0 u/ml, collagen 1.0 mg/ml); 500+ seconds in assay [2] (LMWH 1.0 u/ml, saline); 500+ seconds in assay [2] (LMWH 2.0 u/ml, collagen 0.125 mg/ml); 500+ seconds in assay [2] (LMWH 2.0 u/ml, collagen 0.25 mg/ml); 500+ seconds in assay [2] (LMWH 2.0 u/ml, collagen 0.5 mg/ml). Moreover, the “time to coagulation (AWBCT)” value was 295 s in assay [2] (LMWH 2.0 u/ml, collagen 1.0 mg/ml) and 500+ seconds in assay [2] (LMWH 2.0 u/ml, saline).
